We go through one molecule from patent US20130012591A1, “PROPHYLAXIS OF SKIN CANCER WITH RETINAMIDES” (Revision Therapeutics, Inc., priority 2009, published 2013).

“Also recorded” adds a separate entry of the source.

Assay [1] concerns human that suffers from geographic atrophy (GA), secondary to age related macular degeneration (AMD). Description: Rate of skin neoplasms/cancer in patients with geographic atrophy secondary to AMD (Example 1). In kind it is in vivo. Conditions: orally 100 mg/day, placebo 9.8%. On the procedure: Two patient cohorts were selected. Each member of each patient cohort was a human that suffers from geographic atrophy (GA), secondary to age related macular degeneration (AMD). The mean concentration of serum retinol binding protein in the patients at baseline was approximately 60 μg/mL. The average concentration of serum retinol binding protein in normal individuals of the same type is about 25 μg/mL to about 40 μg/mL. In the first patient population, individuals were orally administered 100 mg/day fenretinide. In the second patient population, individuals were orally administered a placebo. The placebo group developed skin neoplasms (including basal cell carcinoma, squamous cell carcinoma, and/or melanoma) at a rate of 9.8%. In the first patient population, individuals developed cancer (including basal cell carcinoma, squamous cell carcinoma, and/or melanoma) at a rate of 2.5%. […] FIG. 4 illustrates the cytotoxicity of fenretinide on the melanoma cell line (B16 (RL)). FIG. 5 illustrates the effect of fenretinide and compounds of Formula II (designated SIR-1001 and SIR-1005) on two human melanoma cell lines (M207 and SK-MEL28).

In assay [2] the target is T1, Sigma 1 receptor (Cavia porcellus, UniProt Q60492).
T1 construct: guinea pig brain membrane aliquots were thawed, and then suspended at a concentration of 1 mg protein/ml; from tissue; host or cells: guinea pig brain membranes
T1 sequence (Q60492 whole entry): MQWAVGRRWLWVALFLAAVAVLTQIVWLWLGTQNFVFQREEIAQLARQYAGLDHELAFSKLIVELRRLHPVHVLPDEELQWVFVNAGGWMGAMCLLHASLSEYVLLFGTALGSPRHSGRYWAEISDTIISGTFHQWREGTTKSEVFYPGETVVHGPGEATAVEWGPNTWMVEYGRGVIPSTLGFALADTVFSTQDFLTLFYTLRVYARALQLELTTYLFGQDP
Description: Sigma 1 receptor binding assay with [3H](+)-pentazocine. As to conditions: competing ligand 10 μM; [3H](+)-pentazocine 1.0 nM or 0-10 nM; guinea pig brain membrane. How it is done: Sigma 1 receptor binding assays were performed according to DeHaven-Hudkins et al. (1992). In brief, guinea pig brain membrane aliquots were thawed, and then suspended at a concentration of 1 mg protein/ml by adding fresh sigma 1 assay buffer (50 mM Tris-HCl; pH 7.4, 25° C.). Each glass assay tube was kept at a final volume of 1.0 ml, contained 0.25 mg protein, and was incubated for 150 min at 37° C. with [3H](+)-pentazocine. [3H](+)-Pentazocine was used at either a single concentration (1.0 nM, FIG. 6) or at a range of concentrations (0-10 nM, FIG. 7). Nonspecific binding was defined by haloperidol (1.0 μM). Competing ligand concentration (e.g., fenretinide) was 10 μM. Assays were terminated by addition of ice-cold […] (5 ml) and filtration, using a cell harvester (Brandel, Gaithersburg, Md.), through glass fiber filters (GF/B) that had been pretreated with polyethyleneimine (0.5%) for 60 min. Tubes and filter discs were washed (3×3.5 ml) with ice-cold assay buffer, and the filter discs dried under vacuum. Scintillation counting was carried out after incubation of the discs with cocktail for at least 18 h.

In assay [3] the test system is complement genes (Crry, CFH, MCP-1, CD59a, Daf2, and CD59b). Nature of the assay: Expression of complement genes in ocular tissue by RT-PCR. Format: in vivo, BALB/c mice. Conditions: RT-PCR normalized to 18S RNA. How it is done: The effects of fenretinide on expression of complement genes was studies in […].
Fenretinide supplemented chow ([…]), or control chow, was fed to pregnant mice. Birthed litters were maintained for 4 weeks. Mice were euthanized after 4 weeks and ocular tissue was prepared for RNA extraction. Expression of complement genes was determined by RT-PCR. Data was normalized to expression of 18S RNA.
Litters of mice were separated into 2 groups just prior to weaning (4 weeks of age). Mice in Group I were fed fenretinide supplemented chow (1 g fenretinide/kg chow) for 7 weeks. Mice in Group II were fed control chow for 7 weeks. Mice were euthanized after 7 weeks and ocular tissue was prepared for RNA extraction. Expression of complement genes was determined by RT-PCR. Data was normalized to expression of 18S RNA.

The subject of assay [4] is patients with dry AMD. Nature of the assay: Incidence of all neoplasms and basal cell carcinoma in patients with dry AMD (Example 6). In kind it is in vivo, human. Conditions: for Basal Cell Carcinoma, number of patients: placebo 5 of 82; for Basal Cell Carcinoma, incidence: placebo 6.1%; for All neoplasms, number of patients: placebo 14 of 82; for All neoplasms, incidence: placebo 17.1%. How it is done:
Patients with dry AMD were selected. Patients are divided into three groups. Group I (n=82) received a placebo. Group II (n=80) received fenretinide at a dose of 100 mg/day. Group III (n=84) received fenretinide at a dose of 300 mg/day. Incidence of all neoplasms and basal cell carcinoma was determined for each group.

Take `CC1=C(/C=C/C(C)=C/C=C/C(C)=C/C(=O)Nc2ccc(O)cc2)C(C)(C)CCC1` [fenretinide, N-(4-hydroxyphenyl)retinamide]: in assay [1], the “rate at which individuals developed cancer (including basal cell carcinoma, squamous cell carcinoma, and/or melanoma)” value stood at 2.5%. The “binding of [3H]Pentazocine to Sigma-1 receptor in the presence of competing ligand” value in assay [2] is given as “reduced binding”. Also, the “expression of complement genes Crry, CFH, MCP-1, CD59a, CD59b, Daf2 in the eye” value in assay [3] (high dose: supplemented chow (Ig fenretinide/kg chow) fed to pregnant mice, litters maintained 4 weeks, FIG. 9) is “down-regulation; also recorded: down-regulates”. In assay [3] (low dose: chow 1 g fenretinide/kg for 7 weeks from weaning, FIG. 8), the “expression of complement genes Crry, CFH, MCP-1, CD59a, CD59b, Daf2 in the eye” value was “up-regulation; also recorded: up-regulates”. Also, in assay [4] (100 mg/day fenretinide, n = 80), the “Basal Cell Carcinoma, number of patients” value turned out to be 2; the “Basal Cell Carcinoma, incidence” value is reported as 2.5%; the “All neoplasms, number of patients” value is 4; the “All neoplasms, incidence” value is on record as 5.0%. Also, in assay [4] (300 mg/day fenretinide, n = 84), the “Basal Cell Carcinoma, number of patients” value amounted to 3; the “Basal Cell Carcinoma, incidence” value turned out to be 3.6%; the “All neoplasms, number of patients” value is reported as 10; the “All neoplasms, incidence” value is 11.9%.
